From US6498150B2, “Low molecular weight cell, bone marrow and immune stimulants” (priority 1995, dated 2002)
“And” between values parts separate entries of the source, which are not always exact repeats. Equal entries are not always repeated. Where two headings read alike, the source gives them in different places. Marks after values point to notes of the source that are not given here.

Legend:
CD34+ cells = experiment: Blood cell stimulation: CD34+ progenitor suspension culture, lineage marker ELISA; assay type: cell-based, human; details: for neutrophils, Percent difference (relative to control): CD15; for red blood cells, Percent difference (relative to control): glycophorin A
anti-Pn14 antibodies = test system: anti-Pn14 antibodies; design: species or system BALB/c female mice; details: mouse, in vivo
[1] = test system: Hybridoma cells (ATCC #CRL-8014, OKT-8); experiment: Production of monoclonal antibodies from hybridomas (sandwich ELISA); assay type: cell-based; details: 200 pg/ml
[2] = test system: CHO cells containing a cloned gene for tissue plasminogen activator (tPA); experiment: Stimulation of tPA production from CHO cells (IMUBIND total tPA ELISA); assay type: cell-based; details: for Culture Cell Density / Supernatant Concentration (tPA) / Supernatant Concentration relative to control / tPA per cell / tPA per cell relative to control / ELISA Optical Density: 1 pg/ml; for Culture Cell Density: cell numbers per milliliter, trypan-blue, hemacytometer; for Supernatant Concentration (tPA): from standard curve; for ELISA Optical Density: supernatant at end of log phase
[3] = test system: delayed type hypersensitivity (DTH); assay type: in vivo, mice
[4] = Study 1: 1 ng/ml compound, 2000 cells per well, 10 days, CD14
[5] = Study 1: 1 ng/ml compound, 2000 cells per well, 10 days
[6] = Study 2: 1 ug/ml, 1700 cells per well

Compound: O=C(CCNC(=O)OCc1ccccc1)NCCOP(=O)(O)O [Taurox-BOP, N-carboxybenzoxy-β-alanyl-ethanolamine phosphate]
- monocytes, Percent difference (relative to control) (CD34+ cells; [4]): 18%
- neutrophils, Percent difference (relative to control) (CD34+ cells; [5]): 21%
- red blood cells, Percent difference (relative to control) (CD34+ cells; [5]): 0%
- CD34 cells, Percent difference (relative to control) (CD34+ cells; [6]): 33%
- RBC, Percent difference (relative to control) (CD34+ cells; [6]): 55%
- monocytes, Percent difference (relative to control) (CD34+ cells; [6]): 9%
- Mean Change in O.D. from pretest, Day 4 after injection with antigen (anti-Pn14 antibodies): 0
- Mean Change in O.D. from pretest, Day 14 after injection with antigen (anti-Pn14 antibodies): 366
- Mean Change in O.D. from pretest, Day 14 after injection with antigen (anti-Pn14 antibodies; ip): 877 and 515

Compound: NCCC(=O)NCCS(=O)(=O)O [Taurox-S, β-alanyl-taurine]
- monocytes, Percent difference (relative to control) (CD34+ cells; [4]): 47%
- neutrophils, Percent difference (relative to control) (CD34+ cells; [5]): 55%
- red blood cells, Percent difference (relative to control) (CD34+ cells; [5]): 50%
- Mean Change in O.D. from pre-boost, 10 days after boost with UNCONJUGATED polysaccharide (anti-Pn14 antibodies): 204
- Mean Change in O.D. from pretest, Day 4 after injection with antigen (anti-Pn14 antibodies): 2.9
- Mean Change in O.D. from pretest, Day 14 after injection with antigen (anti-Pn14 antibodies): 697
- Mean Change in O.D. from pretest, Day 14 after injection with antigen (anti-Pn14 antibodies; ip): 681 and 671

Compound: O=C(CCNC(=O)OCc1ccccc1)NCCS(=O)(=O)O [Taurox-SB, N-carboxybenzoxy-β-alanyl-taurine]
- Increase of 1 gG, μg/ml over 0-control [1]: 316%
- Increase of IgG, pg/cell over 0-control [1]: 93%
- IgG, pg/cell ([1]; protein-free media): 80.6 pg/cell
- 1 gG ([1]; protein-free media, Mab in culture aliquots): 50 µg/mL
- Culture Cell Density ([2]; listed as #1): 4.0 × 10^5
- Culture Cell Density ([2]; listed as #2): 4.8 × 10^5
- Culture Cell Density ([2]; listed as #3): 5.2 × 10^5
- Supernatant Concentration (tPA) ([2]; listed as #1): 1,492.8 nanograms/ml
- Supernatant Concentration (tPA) ([2]; listed as #2): 1,389.4 nanograms/ml
- Supernatant Concentration (tPA) ([2]; listed as #3): 2,113.0 nanograms/ml
- Supernatant Concentration relative to control ([2]; listed as #1): [3.5 × control]
- tPA per cell ([2]; listed as #1): 3.73 Picograrns
- tPA per cell relative to control ([2]; listed as #1): [1.9 × control]
- Supernatant Concentration relative to control ([2]; listed as #2): [3.3 × control]
- tPA per cell ([2]; listed as #2): 2.89 Picograrns
- Supernatant Concentration relative to control ([2]; listed as #3): [5.0 × control]
- tPA per cell ([2]; listed as #3): 4.06 Picograrns
- tPA per cell relative to control ([2]; listed as #3): [2.1 × control]
- ELISA Optical Density ([2]; listed as #1): 0.332
- ELISA Optical Density ([2]; listed as #2): 0.317
- ELISA Optical Density ([2]; listed as #3): 0.422
- alteration of per-cell production of tPA ([2]; Table 2): about 2 fold
- monocytes, Percent difference (relative to control) (CD34+ cells; [4]): 15%
- neutrophils, Percent difference (relative to control) (CD34+ cells; [5]): 0%
- red blood cells, Percent difference (relative to control) (CD34+ cells; [5]): 0%
- Mean Change in O.D. from pre-boost, 10 days after boost with UNCONJUGATED polysaccharide (anti-Pn14 antibodies): 139
- Mean Change in O.D. from pretest, Day 4 after injection with antigen (anti-Pn14 antibodies): 1.1
- Mean Change in O.D. from pretest, Day 14 after injection with antigen (anti-Pn14 antibodies): 697
- Mean Change in O.D. from pretest, Day 4 after injection with antigen (anti-Pn14 antibodies; ip): 6.2 and 3.9
- Mean Change in O.D. from pretest, Day 14 after injection with antigen (anti-Pn14 antibodies; ip): 705 and 483
- moderate responders compared with saline injected group ([3]; 24 hrs): more moderate responders than the saline injected group
- Percent of Animals with Major DTH at 24 hrs ([3]; mouse, in vivo): 50* Percent
- Percent of Animals with Major DTH at 48 hrs. ([3]; mouse, in vivo): 50%
- Percent of Animals with Major DTH at either 24 or 48 hrs. ([3]; mouse, in vivo): 60%
- Percent of Animals with Moderate DTH at 24 hrs ([3]; mouse, in vivo): 70%
- moderate response rate at 24 hrs ([3]; mouse, in vivo): eight of ten
- total treated animals with major immune response at 24 hours ([3]; mouse, in vivo): 14 animals
- treated animals with major response at either 24 or 48 hours post challenge ([3]; mouse, in vivo): 21 animals
- Percent of Animals with Major DTH at 24 hrs ([3]; mouse, in vivo, iv): 20% and 10%
- Percent of Animals with Major DTH at 48 hrs. ([3]; mouse, in vivo, iv): 20% and 10%
- Percent of Animals with Moderate DTH at 24 hrs ([3]; mouse, in vivo, iv): 70% and 60% and 50% and 80* Percent and 40%

Compound: N-carboxybenzoxy-β-alanyl aminoethylphosphonic acid [Taurox-BP]
- monocytes, Percent difference (relative to control) (CD34+ cells; [4]): 18%
- neutrophils, Percent difference (relative to control) (CD34+ cells; [5]): 14%
- red blood cells, Percent difference (relative to control) (CD34+ cells; [5]): 1%
- CD34 cells, Percent difference (relative to control) (CD34+ cells; [6]): 0%
- RBC, Percent difference (relative to control) (CD34+ cells; [6]): 4%
- monocytes, Percent difference (relative to control) (CD34+ cells; [6]): 2%
- Mean Change in O.D. from pre-boost, 10 days after boost with UNCONJUGATED polysaccharide (anti-Pn14 antibodies): 187
- Mean Change in O.D. from pretest, Day 4 after injection with antigen (anti-Pn14 antibodies): 3.3
- Mean Change in O.D. from pretest, Day 14 after injection with antigen (anti-Pn14 antibodies): 924
